Values quoted from earlier work, collected in patent publication US10143689B2, “SN-38 loaded iron crosslinked micelle and methods thereof” (Intezyne Technologies, Inc., priority 2017, dated 2018).

Experiments:
various cancer cells = settings: in vitro

CCc1c2c(nc3ccc(O)cc13)-c1cc3c(c(=O)n1C2)COC(=O)[C@]3(O)CC [SN-38, 7-ethyl-10-hydroxy-CPT]
cytotoxic activity, potency relative to CPT-11 (various cancer cells): up to 1,000 fold
solubility in aqueous solutions: exceedingly insoluble
